For one molecule, X-ray crystal structure results are on record in article PMC5370183, “Kinetics of the LOV domain of ZEITLUPE determine its circadian function in Arabidopsis” (eLife, 2017).

The target of assay [1] is T1, ZEITLUPE LOV domain (ZTL 29-165, ZTL-S) (Arabidopsis thaliana, UniProt Q94BT6).
T1 construct: gene ADO1; LOV domain, residues 29-165, E. coli, 6xHis or GST tag cleaved by TEV; monomer 16 kDa, homodimer 33 kDa (MALS)
Nature of the assay: X-ray crystal structure. In kind it is binding. As to conditions: dark state, 2.5 Å; FMN non-covalently bound next to C82.

The target of assay [2] is T2, ZEITLUPE LOV domain (ZTL 29-165, ZTL-S) (Arabidopsis thaliana, UniProt Q94BT6, V48I/G80R).
T2 construct: gene ADO1; LOV domain, residues 29-165, E. coli, 6xHis or GST tag cleaved by TEV; monomer 16 kDa, homodimer 33 kDa (MALS)
Kind of assay: X-ray crystal structure. It is filed as binding. Conditions: dark state (5SVV, 2.1 Å) non-covalent; light state (5SVW, 2.3 Å) covalent C4a adduct with C82.

Molecules are shown by their SMILES.

T1 sequence (Q94BT6 29-165): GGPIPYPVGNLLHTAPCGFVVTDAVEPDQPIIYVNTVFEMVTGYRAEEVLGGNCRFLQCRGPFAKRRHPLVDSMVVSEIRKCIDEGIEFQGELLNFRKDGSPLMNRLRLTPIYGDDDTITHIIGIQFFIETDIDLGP
T2 sequence (Q94BT6 29-165 V48I/G80R): as the sequence (Q94BT6 29-165) above, with V20I, G52R counted along it

`Cc1cc2nc3c(=O)[nH]c(=O)nc-3n(C[C@H](O)[C@H](O)[C@H](O)COP(=O)(O)O)c2cc1C` [FMN]: the X-ray crystal structure entry in assay [1] is reported as “The helices cradle the photoreactive FMN adjacent to C82 (Eα helix)”; in assay [2], “Light state crystal structure of V48I:G80R”.
